Active and inactive are the calls of the source.
Legend:
[1] = cells; assay type: functional
[2] = target: T1, Carboxy-terminal domain RNA polymerase II polypeptide A small phosphatase 1 (Homo sapiens, UniProt Q9GZU7); experiment: CTDSP1 inhibitors, concentration-response, biochemical, absorbance readout, ultra-high-throughput screen actives (AID 540297); assay type: functional
T1 sequence (Q9GZU7 whole entry): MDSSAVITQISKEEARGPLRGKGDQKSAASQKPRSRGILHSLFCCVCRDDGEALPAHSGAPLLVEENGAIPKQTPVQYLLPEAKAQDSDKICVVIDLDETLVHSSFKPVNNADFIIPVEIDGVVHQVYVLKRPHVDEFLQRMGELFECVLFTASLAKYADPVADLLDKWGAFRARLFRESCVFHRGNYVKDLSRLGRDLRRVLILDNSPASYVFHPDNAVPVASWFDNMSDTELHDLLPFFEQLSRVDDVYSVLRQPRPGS

[3] = target: T2, Heat shock factor protein 1 (Mus musculus, UniProt P38532); experiment: enhancement of HSF1-driven luciferase signal – cell-based, NIH3T3, luminescence, dose retest, confirmation (AID 435004); assay type: functional;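 also: stress induced by proteasome inhibitor MG132 added 30 min after compound; luciferase reporter driven by HSF1 response element in NIH3T3 cells; actives raise luminescence as potentiators of the MG132 stress response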
T2 sequence (P38532 whole entry): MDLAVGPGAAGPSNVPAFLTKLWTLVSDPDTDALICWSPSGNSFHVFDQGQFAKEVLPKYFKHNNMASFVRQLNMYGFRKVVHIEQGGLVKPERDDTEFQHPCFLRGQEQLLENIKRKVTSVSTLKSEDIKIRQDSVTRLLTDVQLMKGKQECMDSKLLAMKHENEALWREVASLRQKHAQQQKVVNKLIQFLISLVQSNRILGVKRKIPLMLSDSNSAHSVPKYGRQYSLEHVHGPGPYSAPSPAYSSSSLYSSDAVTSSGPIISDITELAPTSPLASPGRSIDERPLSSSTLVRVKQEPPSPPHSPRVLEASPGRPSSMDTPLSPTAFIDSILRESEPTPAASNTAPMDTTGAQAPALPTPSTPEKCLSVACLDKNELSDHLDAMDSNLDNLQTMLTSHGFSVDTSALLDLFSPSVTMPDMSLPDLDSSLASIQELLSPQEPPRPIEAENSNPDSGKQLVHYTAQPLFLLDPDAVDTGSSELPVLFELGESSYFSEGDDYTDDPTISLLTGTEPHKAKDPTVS

[4] = viability of HCT116 lacking mutant beta-catenin – cell-based, human colon tumor, dose response (AID 1045); assay type: functional;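 also: HCT116 colon tumor cells with beta catenin knocked out; cells exposed to compound for 60 hours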
[5] = viability of PTEN-deleted HCT116 cells – cell-based, HCT116 PTEN knockout, dose response (AID 1047); assay type: functional;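 also: HCT116 colon tumor cells with PTEN knocked out; cells exposed to compound for 60 hours before readout; potency for loss of cell viability measured by luminescence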
[6] = target: FAD-linked sulfhydryl oxidase ALR (Homo sapiens, UniProt P55789); experiment: ALR-catalysed DTT oxidation blockers – biochemical, H2O2 detection, luminescence, cherry-pick, dose response (AID 493248)
[7] = target: T3, Cytochrome P450 1A2 (Homo sapiens, UniProt P05177);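 also: PubChem cytochrome P450 panel assay, CYP1A2 panel member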
T3 sequence (P05177 whole entry): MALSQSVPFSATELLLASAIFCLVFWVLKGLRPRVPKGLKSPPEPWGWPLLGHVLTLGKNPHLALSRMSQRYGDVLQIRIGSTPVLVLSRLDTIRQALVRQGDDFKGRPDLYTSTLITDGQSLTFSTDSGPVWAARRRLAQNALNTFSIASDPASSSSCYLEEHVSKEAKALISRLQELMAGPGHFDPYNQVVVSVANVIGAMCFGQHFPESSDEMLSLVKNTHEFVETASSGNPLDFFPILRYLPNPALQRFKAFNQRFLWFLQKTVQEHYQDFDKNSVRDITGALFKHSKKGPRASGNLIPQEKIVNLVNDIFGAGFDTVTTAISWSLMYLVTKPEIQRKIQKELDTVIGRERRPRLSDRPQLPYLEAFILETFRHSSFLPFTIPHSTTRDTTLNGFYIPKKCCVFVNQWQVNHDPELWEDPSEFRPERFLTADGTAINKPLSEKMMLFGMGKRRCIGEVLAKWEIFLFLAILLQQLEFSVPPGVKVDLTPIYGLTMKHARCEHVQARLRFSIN

[8] = microbe, parasite or virus in culture; assay type: functional; settings: Mycobacterium tuberculosis
[9] = target: Glyceraldehyde-3-phosphate dehydrogenase (Homo sapiens, UniProt P04406)
[10] = test system: SN12K1; experiment: cells; assay type: functional; settings: Homo sapiens
[11] = test system: P388/ADR; experiment: cells; assay type: functional; settings: Mus musculus
[12] = test system: P388; experiment: cells; assay type: functional; settings: Mus musculus
[13] = target: T4, Replicative DNA helicase DnaB (Mycobacterium tuberculosis, UniProt P9WMR3); experiment: DnaB intein splicing inhibitors, dose response, biochemical, cell-free fluorescence (AID 449749); assay type: functional
T4 sequence (P9WMR3 whole entry): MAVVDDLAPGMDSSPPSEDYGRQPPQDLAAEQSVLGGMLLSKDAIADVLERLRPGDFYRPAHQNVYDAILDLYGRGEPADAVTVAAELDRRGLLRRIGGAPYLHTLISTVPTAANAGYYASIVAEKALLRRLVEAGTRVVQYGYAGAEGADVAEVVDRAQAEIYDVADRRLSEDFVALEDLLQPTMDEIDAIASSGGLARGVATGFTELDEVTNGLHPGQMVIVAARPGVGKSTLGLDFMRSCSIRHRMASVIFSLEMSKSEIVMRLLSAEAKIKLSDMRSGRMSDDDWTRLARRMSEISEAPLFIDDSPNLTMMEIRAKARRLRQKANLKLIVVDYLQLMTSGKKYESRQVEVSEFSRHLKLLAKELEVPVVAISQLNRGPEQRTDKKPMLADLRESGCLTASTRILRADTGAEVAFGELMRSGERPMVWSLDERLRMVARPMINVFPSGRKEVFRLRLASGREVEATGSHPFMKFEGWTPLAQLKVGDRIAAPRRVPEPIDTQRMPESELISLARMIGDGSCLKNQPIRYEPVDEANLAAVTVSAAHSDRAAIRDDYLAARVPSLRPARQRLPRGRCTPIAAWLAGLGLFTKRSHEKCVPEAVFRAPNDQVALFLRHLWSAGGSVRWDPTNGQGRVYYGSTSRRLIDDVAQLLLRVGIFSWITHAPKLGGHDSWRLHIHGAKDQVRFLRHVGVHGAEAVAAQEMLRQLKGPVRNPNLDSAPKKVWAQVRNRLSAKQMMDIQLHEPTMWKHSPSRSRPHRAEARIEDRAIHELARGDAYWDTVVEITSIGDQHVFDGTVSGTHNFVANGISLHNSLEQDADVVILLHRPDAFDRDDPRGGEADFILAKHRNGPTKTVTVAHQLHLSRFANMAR

[14] = target: T5, Protein RecA (Mycobacterium tuberculosis, UniProt P9WHJ3); experiment: Fluorescence Cell-Free Homogeneous Dose Retest to Identify Inhibitors of RecA-Intein Splicing Activity. [Related pubchem assays (depositor defined):AID2097, AID2223, AID489010, AID492950]; assay type: functional
T5 sequence (P9WHJ3 whole entry): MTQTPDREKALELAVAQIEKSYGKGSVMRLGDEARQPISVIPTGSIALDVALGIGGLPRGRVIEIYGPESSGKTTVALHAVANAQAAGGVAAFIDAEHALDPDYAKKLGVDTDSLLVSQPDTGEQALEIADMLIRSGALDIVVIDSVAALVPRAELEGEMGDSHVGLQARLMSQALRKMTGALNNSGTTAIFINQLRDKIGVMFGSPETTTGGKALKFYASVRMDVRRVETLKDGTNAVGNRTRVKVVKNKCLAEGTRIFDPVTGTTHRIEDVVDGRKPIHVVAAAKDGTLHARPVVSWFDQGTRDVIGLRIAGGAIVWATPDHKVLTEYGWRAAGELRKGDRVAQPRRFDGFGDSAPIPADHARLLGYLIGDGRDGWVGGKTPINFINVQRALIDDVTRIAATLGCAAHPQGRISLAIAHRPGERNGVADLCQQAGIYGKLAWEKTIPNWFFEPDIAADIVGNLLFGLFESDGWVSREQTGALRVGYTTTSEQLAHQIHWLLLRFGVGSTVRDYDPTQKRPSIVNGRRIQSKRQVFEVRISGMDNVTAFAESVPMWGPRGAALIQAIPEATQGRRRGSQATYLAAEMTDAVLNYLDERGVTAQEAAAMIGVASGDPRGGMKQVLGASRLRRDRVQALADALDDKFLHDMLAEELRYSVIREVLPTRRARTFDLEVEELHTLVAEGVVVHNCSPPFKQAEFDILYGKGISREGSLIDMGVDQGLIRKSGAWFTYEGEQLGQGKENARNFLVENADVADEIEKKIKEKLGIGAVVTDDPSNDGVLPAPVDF

[15] = reduction of Shn3 3'UTR-driven luciferase in osteoblasts – cell-based, Clone20 osteoblasts, firefly luciferase, cherry-picked, dose response (AID 624132); assay type: functional;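 also: firefly luciferase luminescence from reporter carrying the Shn3 3'UTR in osteoblasts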

Chain of FAD-linked sulfhydryl oxidase ALR (P55789 whole entry): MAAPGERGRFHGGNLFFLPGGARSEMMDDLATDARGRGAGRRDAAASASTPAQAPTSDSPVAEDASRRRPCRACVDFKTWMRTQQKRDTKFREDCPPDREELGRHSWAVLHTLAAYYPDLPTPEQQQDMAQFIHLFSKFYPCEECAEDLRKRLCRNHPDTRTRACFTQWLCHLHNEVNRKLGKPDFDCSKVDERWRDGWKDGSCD
Chain of Glyceraldehyde-3-phosphate dehydrogenase (P04406 whole entry): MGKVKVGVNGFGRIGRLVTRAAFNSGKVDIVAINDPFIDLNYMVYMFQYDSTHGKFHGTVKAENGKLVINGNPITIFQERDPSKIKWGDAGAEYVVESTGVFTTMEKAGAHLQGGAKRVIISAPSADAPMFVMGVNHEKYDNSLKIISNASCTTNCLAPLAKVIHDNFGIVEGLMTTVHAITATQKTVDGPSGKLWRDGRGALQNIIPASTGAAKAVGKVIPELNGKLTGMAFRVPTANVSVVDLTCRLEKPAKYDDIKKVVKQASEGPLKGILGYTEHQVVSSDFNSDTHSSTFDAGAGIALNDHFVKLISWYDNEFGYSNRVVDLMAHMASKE

CCOC(=O)C1CCCc2c1[nH]c1c(C(N)=O)cccc21 (stereo not drawn)
IC50 [1]: 5.22 µM (active)

Cc1ncc([N+](=O)[O-])n1CCOC(=O)c1cc(Cl)cc(Cl)c1N
IC50 [2]: 6.77 µM (active) | EC50 [3]: > 260 µM (inactive)

O=C(N/N=C/c1ccc(Cl)cc1)c1cc2c(s1)-c1ccccc1CC2
IC50 [2]: 20 µM (active) | EC50 [4]: 10.5 µM (active) | EC50 [5]: 9.47 µM (active)

O=S(=O)(Nc1ccc2c(c1)OCO2)c1ccc(F)c(F)c1
AC50 [6]: 5.12 µM (active)

O=C(NNCc1ccc(O)cc1)c1ccccc1Cl
AC50 [6]: 0.695 µM (active)

O=C(NNc1nc2ccccc2s1)c1ccccc1F
AC50 [7]: 14.1 µM (inconclusive) | AC50 [6]: 14.2 µM (active) | CC50 [8]: > 40 µM (active)

O=C1/C(=C\c2ccncc2)CCc2ccccc21
CC50 [8]: > 40 µM (active)

O=C1/C(=C/c2c[nH]c3ccccc23)CCC/C1=C\c1c[nH]c2ccccc12
EC50 [4]: 16.8 µM (active) | EC50 [5]: 14.4 µM (active)

CCOc1ccc(C(CC(=O)O)CC(=O)O)cc1
IC50 [9]: > 100 µM (not active)

O=[N+]([O-])c1c(O)oc2ccccc2/c1=N\c1ccccc1O
IC50 [1]: 7.4 µM (active)

CC1CCCC(C)N1c1nnc(N)s1 (stereo not drawn)
AC50 [6]: 2.31 µM (active)

COc1ccc(CCNC(=O)c2cc(-c3cc(C)ccc3O)n[nH]2)cc1OC
AC50 [6]: 85.6 µM (active)

CCCc1cc(C(=O)N2CCCC(Nc3ccc(C)c(C)c3)C2)n(C)n1 (stereo not drawn)
AC50 [6]: 3.84 µM (active)

C=C(C)CSc1cc(C)c(C#N)c2nc3ccccc3n12
CC50 [8]: 10.1 µM (active)

Cc1cc(O)n2cc(-c3ccccc3)nc2n1
AC50 [6]: 13.9 µM (active)

CC1(C)c2[nH]c3ccccc3c2C[C@@H]2C(=O)N(Cc3ccccc3F)C(=O)N21
CC50 [8]: > 40 µM (active)

CC(OC(=O)c1ccc2c(=O)n3c(nc2c1)CCCCC3)C(=O)Nc1ccc(Cl)cn1 (stereo not drawn)
IC50 [1]: 20.3 µM (active)

O=C(NNC(=O)c1ccc(-c2ccccc2)cc1)c1ccccc1
IC50 [2]: 11.2 µM (active)

CCOC(=O)c1cc(-c2c(Cl)cccc2Cl)no1
IC50 [1]: 23 µM (active)

CN1CCN(C2=C(Cl)C(=O)N(c3ccc(C(F)(F)F)cc3)C2=O)CC1
IC50 [9]: > 50 µM (inconclusive)

C/C=C1\C[C@@H]2C(OC)Nc3cc(O)c(OC)cc3C(=O)N2C1 (stereo partly drawn)
GI50 [10]: 0.01 µM (active) | GI50 [11]: 0.01 µM (active) | GI50 [12]: 0.01 µM (active)

O=S1(=O)N=C(N/N=C/C=C/c2ccccc2)c2ccccc21
IC50 [1]: 30.6 µM (active)

N#Cc1ccc(-c2ccc(F)cc2)nc1Oc1ccc(Cl)c(Cl)c1
EC50 [4]: 3.8 µM (active) | EC50 [5]: 7.18 µM (active)

CC1=NCCc2cc3[nH]c4ccccc4c3cc21
GI50 [10]: 14.6 µM (inactive) | GI50 [11]: 9.04 µM (inactive) | GI50 [12]: 6.73 µM (inactive)

CCCN1C(=O)/C(=C(/O)C(=O)OCC)C(c2ccc(OC)c(OC)c2)C1=O (stereo not drawn)
GI50 [10]: > 100 µM (inactive) | GI50 [11]: > 100 µM (inactive) | GI50 [12]: > 100 µM (inactive)

O=C1Nc2ccc(S(=O)(=O)NCc3ccco3)c3cccc1c23
IC50 [2]: 10.8 µM (active)

O=C1C(Cl)=C(N2CCOCC2)C(=O)N1c1cccc(C(F)(F)F)c1
IC50 [9]: > 50 µM (inconclusive) | AC50 [13]: 1.16 µM (inconclusive) | EC50 [14]: 1.64 µM (active)

CCOc1ccc(CCNc2ccc3nnc(-c4ccccc4)n3n2)cc1OCC
EC50 [4]: 26.3 µM (active) | EC50 [5]: 12.7 µM (active)

CCN(CC)CCCC(C)Nc1c2ccc(Cl)cc2nc2cc(Cl)ccc12 (stereo not drawn)
GI50 [10]: 2.81 µM (inactive) | GI50 [11]: 1.71 µM (inactive) | GI50 [12]: 1.87 µM (inactive)

C=C1C(=O)[C@@]23CC[C@H]4[C@@](C)(CCC[C@@]4(C)C(=O)OC)[C@@H]2CC[C@]1(O)C3
GI50 [10]: 1.45 µM (inactive) | GI50 [11]: 0.0483 µM (active) | GI50 [12]: 0.153 µM (active)

COc1ccc(N2C(=O)C(F)(F)C2c2cccc(F)c2)cc1 (stereo not drawn)
IC50 [1]: 5.74 µM (active)

COC(=O)c1ccccc1N=C(S)N(Cc1ccc2c(c1)OCO2)Cc1cc2cc(OC)ccc2nc1O
AC50 [15]: 10.4 µM (active)

O=C1C(Cl)=C(N2CCN(CCOCCO)CC2)C(=O)N1c1ccc(C(F)(F)F)cc1
IC50 [9]: > 50 µM (inconclusive)
